Tested on: HEK-293T
Assay: Incucyte cell viability with HEK293T; also: filed as whole numbers so only -1 and 0 and 1 occur
Format: toxicity, cell-based
Details: human, 10 µM, compound concentration 10 uM
[1] = 0 h, replicate number 1, timepoint 0 hours
[2] = 6 h, replicate number 2, timepoint 6 hours
[3] = 12 h, replicate number 2, timepoint 12 hours
[4] = 18 h, replicate number 1, timepoint 18 hours
[5] = 18 h, replicate number 2, timepoint 18 hours
[6] = 24 h, replicate number 1, timepoint 24 hours
[7] = 0 h, replicate number 2, timepoint 0 hours
[8] = 6 h, replicate number 1, timepoint 6 hours
[9] = 12 h, replicate number 1, timepoint 12 hours
[10] = 24 h, replicate number 2, timepoint 24 hours

SMILES | Growth Rate [1] | Growth Rate [2] | Growth Rate [3] | Growth Rate [4] | Growth Rate [5] | Growth Rate [6] | Growth Rate [7] | Growth Rate [8] | Growth Rate [9] | Growth Rate [10]
Nc1c(C(=O)NCc2ccc(C(=O)NCCCC3CCCCC3)cc2)cnn1-c1ccccc1 [SR-318] | 0 | 0 | 0 | 1 | 0 | 0 | – | – | – | –
Cc1cc(C)cc(-c2cnc3cc(Cl)c(-c4cccc(O)c4)cc3c2OCCCN)c1 | – | – | – | 0 | – | 0 | 1 | 0 | 0 | –
CC(C)(O)CNc1ncc(-c2ccnc(Nc3ccnc(Cl)c3)n2)c(CC2CC2)n1 | – | – | – | 0 | – | 0 | 1 | 0 | 0 | –
CNc1nc(NCc2ccc(NS(C)(=O)=O)cc2Cl)cc(-c2ccccn2)n1 | 1 | – | – | 0 | – | 0 | 0 | 0 | 0 | –
COc1ccc(Oc2cc(NCCC(F)(F)F)c3ncc(-c4ccc(C(=O)NC5CC5)c(C)c4)n3n2)c(F)c1F [BAY-1217389] | 0 | – | – | 0 | – | 0 | – | 0 | 0 | –
COc1cc(-n2cnc3cc(-c4ccc(Cl)cc4)sc3c2=O)ccc1OCCN1CCCC1 | – | – | – | 0 | – | 0 | 1 | 0 | 0 | –
CN1CCCC(n2nc(Cc3ccc(Cl)cc3)c3ccccc3c2=O)CC1.Cl (centres undefined) [AZELASTINE HYDROCHLORIDE] | – | – | – | 0 | – | 0 | 1 | 0 | 0 | –
CN(C)CC#Cc1ccc(OCCCc2sc(N3CCc4cccc(C(=O)Nc5nc6ccccc6s5)c4C3)nc2C(=O)O)c(F)c1 [A-1155463] | 0 | – | – | – | – | – | 1 | – | – | 1
CC(C)NCC(O)COc1ccc(CCOCC2CC2)cc1.Cl (centres undefined) [BETAXOLOL HYDROCHLORIDE] | – | 1 | – | 0 | – | 0 | 0 | 0 | 0 | –
Cc1[nH]c(/C=C2\C(=O)Nc3ccc(S(=O)(=O)N(C)c4cccc(Cl)c4)cc32)c(C)c1C(=O)N1CCN(C)CC1 | 0 | – | – | 0 | 1 | 0 | – | – | – | –
CN1CCC[C@@H]1CCO[C@](C)(c1ccccc1)c1ccc(Cl)cc1.O=C(O)/C=C/C(=O)O [CLEMASTINE FUMARATE] | – | – | – | 0 | – | 0 | 1 | 0 | 0 | –
NC(=O)Nc1cc(-c2cccc(F)c2)sc1C(=O)N[C@H]1CCCNC1 [AZD-7762] | 0 | – | – | 0 | – | 0 | 1 | 0 | 0 | –
Cn1cc(-c2[nH]c3cc(NC(=O)[C@H](N)C4CCCCC4)cc4c3c2C=NNC4=O)cn1 | – | – | – | 0 | – | 0 | – | 0 | 0 | –
COc1cc2nccc(Oc3ccc(NC(=O)Nc4cc(C)on4)c(Cl)c3)c2cc1OC.O | – | – | – | 0 | – | 0 | 0 | 0 | 0 | –
C[C@@H](NCCCc1cccc(C(F)(F)F)c1)c1cccc2ccccc12.Cl [CINACALCET HYDROCHLORIDE] | – | – | – | 0 | – | 0 | 0 | 0 | 0 | –
OC1(c2ccc(Cl)cc2)CCN(Cc2c[nH]c3ccccc23)CC1 | 1 | – | – | 0 | – | 0 | – | 0 | 0 | –
CN1C(=O)c2sccc2N(C)c2nc(Nc3ccc(S(N)(=O)=O)cc3)ncc21 | – | – | – | 0 | – | 0 | – | 0 | 0 | –
CN1CCN(c2ccc(OC(F)(F)F)c(Nc3ncc4c(n3)-c3c(c(C(N)=O)nn3CCO)CC4)c2)CC1 [ONVANSERTIB] | 1 | – | – | 0 | – | 0 | 0 | 0 | 0 | –
CC(C)C(=O)Nc1n[nH]c2cc(-c3cccc(NS(=O)(=O)C4CC4)c3)ccc12 | 0 | – | – | 0 | – | 0 | – | 0 | 0 | –
Cn1cncc1[C@@](O)(COc1ccc(C#N)cc1-c1ccc(OC(F)(F)F)cc1)c1ccc(C#N)cc1 [A-108] | 1 | 0 | 0 | 0 | – | 0 | – | – | 1 | –
CCOCCn1cc(C(=O)Nc2ccc(-n3nc(-c4cccnc4)cc3C(F)(F)F)cn2)ccc1=O [BI 1935] | 1 | – | – | 0 | – | 0 | – | 0 | 0 | –
CN(C)C(=O)N[C@H]1CC[C@H](CCN2CCN(c3cccc(Cl)c3Cl)CC2)CC1.Cl [CARIPRAZINE HYDROCHLORIDE] | – | – | – | 0 | – | 0 | 1 | 0 | 0 | –
Cc1csc2c(N[C@@H](C)CN3CCN(S(=O)(=O)c4ccc(Cl)c(Cl)c4)CC3)ncnc12 | 0 | – | – | 0 | – | 0 | – | 0 | 0 | –

SMILES | Growth Rate [1] | Growth Rate [2] | Growth Rate [3] | Growth Rate [4] | Growth Rate [5] | Growth Rate [6] | Growth Rate [7] | Growth Rate [8] | Growth Rate [9] | Growth Rate [10]
CCN(CC)CCCCNc1ncc2cc(-c3cc(OC)cc(OC)c3)c(NC(=O)NC(C)(C)C)nc2n1 [PD-173074] | 1 | – | – | 0 | – | 0 | – | 0 | 0 | –
O=C(NCCCC1CCCCC1)c1ccc(CNC(=O)c2cnn(-c3ccccc3)c2C(F)(F)F)cc1 [SR-321] | 0 | – | – | 0 | – | 0 | 1 | 0 | 0 | –
CNCc1ccccc1-c1csc([C@H](C)Nc2nc(C)nc3cc(OC)c(OC)cc23)c1 [BAY-294] | – | – | – | 0 | – | 0 | – | 0 | 0 | –
Cl.N#Cc1ccc2[nH]cc(CCCCN3CCN(c4ccc5oc(C(N)=O)cc5c4)CC3)c2c1 [VILAZODONE HYDROCHLORIDE] | 0 | – | – | 0 | – | 0 | – | 0 | 0 | –
C=CC(=O)Nc1cccc(C(=O)Nc2ccc(Nc3cc(-c4[nH]c(SC)nc4C)ccn3)cc2)c1 | 0 | – | – | 0 | 1 | 0 | 1 | 0 | 0 | –
c1cn2cc(-c3ccc4cn[nH]c4c3)nc(Nc3ccc(N4CCOCC4)cc3)c2n1 [ENTOSPLETINIB] | – | – | – | – | – | 1 | – | – | – | –
C=CC(=O)Nc1cc2c(Nc3ccc(F)c(Cl)c3)ncnc2cc1OCCCN1CCOCC1.Cl.Cl [CANERTINIB DIHYDROCHLORIDE] | – | – | – | 0 | – | 0 | – | 0 | 0 | –
COc1ncc(-c2ccc3nccc(-c4ccnnc4)c3c2)cc1NS(=O)(=O)c1ccc(F)cc1F [OMIPALISIB] | – | – | – | 0 | – | 0 | – | 0 | 0 | –
C=CC(=O)Nc1ccc2ncnc(Nc3ccc(OCc4cccc(F)c4)c(Cl)c3)c2c1.Cc1ccc(S(=O)(=O)O)cc1 | 0 | 0 | 0 | 0 | – | 0 | 1 | – | – | –
Cc1c(-c2ccc(O)cc2)n(Cc2ccc(OCCN3CCCCCC3)cc2)c2ccc(O)cc12 [BAZEDOXIFENE] | – | – | – | 0 | – | 0 | 0 | 0 | 0 | –
CN(C)c1ncnc(-c2ccc3nc(Nc4cc(CN5CCN(C(=O)CC(F)(F)F)CC5)ccn4)[nH]c3c2)c1Cl [BAY-440] | – | – | – | 0 | – | 0 | 0 | 0 | 0 | –
Cc1nc(-c2ccc(-c3ccc(C(=O)N4CCc5cc6c(cc54)C4(CCN(C)CC4)CO6)cc3)c(C)c2)no1 [SB-224289] | – | – | – | 0 | – | 0 | 0 | 0 | 0 | –
O=C(NCCN1CCOCC1)c1ccc2c(c1)C(=O)c1ccc(Nc3ccc(F)c(NC(=O)c4ccccc4)c3)cc1CC2 [FS-694] | – | – | – | 0 | – | 0 | 0 | 0 | 0 | –
O=C1NCN(c2ccccc2)C12CCN(CCCOc1ccc(F)cc1)CC2 [SPIRAMIDE] | 0 | – | – | 0 | – | 0 | – | 0 | 0 | –
C[C@@]1(C(=O)Nc2ccc(F)nc2)CCCN1c1nc(Nc2cc(C3CC3)n[nH]2)c2cccn2n1 [BMS-754807] | – | – | – | 0 | – | 0 | – | 0 | 0 | –
CN1CCN(CCOc2cc(OC3CCOCC3)c3c(Nc4c(Cl)ccc5c4OCO5)ncnc3c2)CC1 [SARACATINIB] | – | – | – | 0 | – | 0 | – | 0 | 0 | –
Cc1sc2c(c1C)C(c1ccc(Cl)cc1)=N[C@@H](CC(=O)OC(C)(C)C)c1nnc(C)n1-2 | 0 | 0 | 0 | 1 | 0 | 0 | 1 | – | – | –
CC[C@H](C)C(=O)O[C@H]1C[C@@H](C)C=C2C=C[C@H](C)[C@H](CC[C@@H]3C[C@@H](O)CC(=O)O3)[C@H]21 [LOVASTATIN] | 0 | – | 1 | 0 | – | 0 | – | 1 | 0 | –
Cc1nc(-c2cn3c(n2)-c2ccc(-c4cnn(C(C)(C)C(N)=O)c4)cc2OCC3)n(C(C)C)n1 [TASELISIB] | – | – | – | 0 | – | 0 | – | 0 | 0 | –
COc1cccc([C@@H](C)NCCCc2ccccc2Cl)c1.Cl [TECALCET HYDROCHLORIDE] | – | – | – | 0 | – | 0 | 0 | 0 | 0 | –
Cc1nc(Nc2n[nH]c3c2CN(C(=O)N[C@H](CN(C)C)c2ccccc2)C3(C)C)c2sccc2n1 [PF-03758309] | – | – | – | 0 | – | 0 | – | 0 | 0 | –
CN(C)C(=O)/C(C#N)=C/c1ccc(-c2nc3cnc4[nH]ccc4c3n2C2CCCCC2)o1 | 0 | – | – | – | – | – | – | – | – | 1
